Measurements reported in patent publication US20250051762A1, “PLATFORM USING DNA-ENCODED SMALL MOLECULE LIBRARIES AND RNA SELECTION TO DESIGN SMALL MOLECULES THAT TARGET RNA” (University of Florida Research Foundation, Incorporated, priority 2021, published 2025).

What was measured:
Type in all cases: cell-based, human
mutant pri-miR-27a = assay: RT-qPCR of miR-27a biogenesis in MCF-10a cells transfected with mutant pri-miR-27a; conditions: mutant plasmid, 48 h
Source text: To gauge the specificity of 9 for pri-miR-27a, inhibition of biogenesis was first studied in a cellular model of healthy breast epithelium, MCF-10a, in which miR-27a expression is not detectable (Ct>31). MCF-10a cells were transfected with a plasmid encoding WT pri-miR-27a or mutant in which the two 5′GAG/3′CCC internal loops at and nearby the Drosha processing site were mutated to base pairs. In the absence of compound treatment, both primary miRNA transcripts were processed similarly, generating mature miR-27a, as determined by RT-qPCR.
(§1) Cell lines. Compounds were tested in MDA-MB-231 TNBC cells (HTB-26, ATCC), LNCaP metastatic prostate cancer cells (gifted from Junli Luo lab), MCF-7 (HTB-22, ATCC) breast cancer cells, HeLa cervical adenocarcinoma cells (CCL-2, ATCC), and MCF-10a, a model of healthy breast epithelial cells (CRL-10317, ATCC).
Cell culture and compound treatment. All cells were maintained at 37° C. with 5% CO2. […]
(§2) Analysis of mRNA abundance: Each cell line was grown as a monolayer in 12- or 24-well plates and treated as described in “Cell culture and compound treatment”. […] Relative abundance of mature miRNAs was calculated by normalizing to RNU6, and relative abundance for pri-miRNAs and mRNAs was calculated by normalizing to 18S ribosomal RNA, using the AAC, method. […]

miR-23a = assay: RT-qPCR of mature miR-23a in MDA-MB-231 cells
Procedure: as §1
Cell culture and compound treatment. All cells were maintained at 37° C. with 5% CO2. MDA-MB-231 and LNCaP cells were cultured in RPMI 1640 medium with L-glutamine & 25 mM HEPES (Corning) supplemented with 10% (v/v) fetal bovine serum (FBS; Sigma) and 1× (v/v) Antibiotic-Antimycotic solution (Corning). MCF-7 and HeLa cells were cultured in DMEM medium with 4.5 g/L glucose (Corning), supplemented with 10% FBS, 1× (v/v) Glutagro (Corning), and 1× (v/v) Antibiotic-Antimycotic solution. […]
as §2

PP4C = assay: Western blot of PP4C in MDA-MB-231 cells; conditions: relative to β-actin, 48 h
Procedure: Western Blotting: MDA-MB-231 cells were grown in 6-well plates to ˜80% confluency in complete growth medium and then incubated with 9 at the indicated concentrations for 48 h. Total protein was extracted using M-PER Mammalian Protein Extraction Reagent (Pierce Biotechnology) using the manufacturer's protocol and quantified using a Micro BCA Protein Assay Kit (Pierce Biotechnology). Approximately 50 μg of total protein was separated on a 10% SDS-polyacrylamide gel, and then transferred to a PVDF membrane. The membrane was washed with 1× Tris-buffered saline (TBS) and then blocked in 1×TBST (1×TBS containing 0.1% (v/v) Tween-20) containing 5% (w/v) milk for 1 h at room temperature. […] The membrane was again washed with 1×TBST, and protein expression was quantified using SuperSignal West Pico Chemiluminescent Substrate (Pierce Biotechnology) per the manufacturer's protocol.
To quantify b-actin expression, used for normalization, the membrane was stripped using 1× Stripping Buffer (200 mM glycine, pH 2.2 and 0.1% SDS) followed by washing in 1×TBST. […] The fold change of the target protein expression (PP4C or PDCD4) was calculated by normalizing its band intensity to b-actin band intensity using ImageJ.

Structure (SMILES): C#CCN(CC(N)=O)C(=O)C[C@H](Cc1c[nH]c2ccccc12)NC(=O)[C@@H]1C[C@H](NC(=O)Cn2c(=O)[nH]c3ccccc3c2=O)CN1 [Compound 9]
- inhibition of biogenesis of mutated pri-miR-27a (mutant pri-miR-27a): did not inhibit biogenesis
- effect on levels of mature miR-23a (miR-23a): no effect
- PP4C expression (PP4C): upregulation
